# Assay results reported in patent US8389679B2, “Targeted antimicrobial moieties” (priority 2009, dated 2013).
# Entries after “also recorded” stand apart in the source; their conditions may differ.
# Tested on: target microorganisms
# Experiment: Screen of synthesized peptides for binding to target microorganisms (targeting peptides, Tables 2 and 3)
# Conditions: microorganism(s) the targeting peptide was identified as binding to (Table 3)
# Experimental: Once noted, these peptides were batch synthesized on a multiplex peptide synthesizer, yielding 5-10 mg of each peptide that could readily be screened for biological activity (e.g., binding activity and/or antimicrobial activity.
# Other suitable targeting peptides include the peptides that have been identified as binding to particular target organisms as shown in Table 3 and/or Table 4.
row,Substance,Target(s)
1,1T-105 (GEGLPPPVLHLPPPRMSGR; synthetic novel tartgeting peptide IT-105),"S. epidermidis, S. gordonii,; also recorded: S. mitis, S. mutans,; also recorded: S. oralis"
2,1T-106 (DALRRSRSQGRRHR; synthetic novel tartgeting peptide IT-106),"S. gordonii, S. mitis, S. mutans,; also recorded: S. oralis, S. salivarious"
3,1T-107 (SPVPRFTAVGGVSRGSP; synthetic novel tartgeting peptide IT-107),"A. naeslundiiS. epidermidis,; also recorded: S. gordonii,; also recorded: S. mitis, S. mutans, S. oralis,; also recorded: S. salivarious, S. sanguinis"
4,1T-108 (WGPLGPERPLW; synthetic novel tartgeting peptide IT-108),"S. gordonii, S. mitis, S. mutans,; also recorded: S. oralis, S. salivarious,; also recorded: S. sanguinis"
5,1T-109 (VTTNVRQGAGS; synthetic novel tartgeting peptide IT-109),"A. naeslundiiS. epidermidis,; also recorded: S. gordonii,; also recorded: S. mitis, S. mutans, S. oralis,; also recorded: S. salivarious, S. sanguinis"
6,1T-110 (LAAKTAVCVGRAFM; synthetic novel tartgeting peptide IT-110),"A. naeslundii, P. gingivalis; also recorded: S. epidermidis,; also recorded: S. gordonii, S. mitis, S. mutans,; also recorded: S. oralis, S. sanguinis"
7,1T-111 (GRLSRREEDPATSIILLRGAYRMAVF; synthetic novel tartgeting peptide IT-111),"A. naeslundii, F. nucleatum,; also recorded: P. gingivalis; also recorded: S. epidermidis,; also recorded: S. gordonii, S. mitis, S. mutans,; also recorded: S. oralis, S. salivarious,; also recorded: S. sanguinis"
8,1T-112 (SDNDGKLILGTSQ; synthetic novel tartgeting peptide IT-112),S. gordonii
9,1T-113 (HGAHQRTGQRLHHHRGRTVSGCRQNPVAGVDPDEHR; synthetic novel tartgeting peptide IT-113),S. mitis
10,1T-114 (RQAPGPGLVTITAACSAPGSRSR; synthetic novel tartgeting peptide IT-114),"A. naeslundii, P. gingivalis; also recorded: S. epidermidis,; also recorded: S. gordonii, S. mitis, S. mutans,; also recorded: S. oralis, S. sanguinis"
11,1T-115 (LLIERFSNHH; synthetic novel tartgeting peptide IT-115),"A. naeslundii, F. nucleatum,; also recorded: P. gingivalis; also recorded: S. epidermidis,; also recorded: S. gordonii, S. mitis, S. mutans,; also recorded: S. oralis, S. salivarious,; also recorded: S. sanguinis"
12,1T-116 (MILHRRRDR; synthetic novel tartgeting peptide IT-116),"A. naeslundii, P. gingivalis; also recorded: S. epidermidis,; also recorded: S. gordonii, S. mitis, S. mutans,; also recorded: S. oralis, S. salivarious,; also recorded: S. sanguinis"
13,1T-117 (GPGVVGPAPFSRLPAHALNL; synthetic novel tartgeting peptide IT-117),S. mutans
14,1T-118 (TASPPAPSDQGLRTAFPATLLIALAALARISR; synthetic novel tartgeting peptide IT-118),"A. naeslundii, F. nucleatum,; also recorded: P. gingivalis; also recorded: S. epidermidis,; also recorded: S. gordonii, S. mitis, S. mutans,; also recorded: S. oralis, S. salivarious,; also recorded: S. sanguinis"
15,1T-119 (SPATQKAPTRAQPSRAPVQDCGDGRPTAAPDDVERLSPR; synthetic novel tartgeting peptide IT-119),"S. gordonii, S. mitis, S. mutans,; also recorded: S. oralis"
16,1T-120 (DVRDRVDLAGADLCAAHATR; synthetic novel tartgeting peptide IT-120),"A. naeslundii, F. nucleatum,; also recorded: P. gingivalis; also recorded: S. epidermidis,; also recorded: S. gordonii, S. mitis, S. mutans,; also recorded: S. oralis, S. salivarious,; also recorded: S. sanguinis"
17,1T-121 (FAKETGFGIGGAQEGWWIIADIYGPNPF; synthetic novel tartgeting peptide IT-121),"S. gordonii, S. mitis, S. mutans,; also recorded: S. oralis, S. salivarious,; also recorded: S. sanguinis"
18,1T-122 (GAIPDPVTHRVDWEEDHQTRPSR; synthetic novel tartgeting peptide IT-122),S. mitis
19,1T-123 (LVRRNAVAGRSDGLAGAEQLDLVRLQGVL; synthetic novel tartgeting peptide IT-123),S. gordonii
20,1T-124 (LFDERNKIA; synthetic novel tartgeting peptide IT-124),"S. mitis, S. mutans, S. oralis"

row,Substance,Target(s)
1,1T-125 (DAITGGNPPLSDTDGLRP; synthetic novel tartgeting peptide IT-125),"S. epidermidis, S. gordonii,; also recorded: S. mutans, S. oralis"
2,1T-126 (QGLARPVLRRIPL; synthetic novel tartgeting peptide IT-126),"S. gordonii, S. mitis, S. mutans"
3,1T-127 (YDPVPKRKNKNSEGKREE; synthetic novel tartgeting peptide IT-127),"A. naeslundii, F. nucleatum,; also recorded: P. gingivalis,; also recorded: T. denticolaS. gordonii,; also recorded: S. mitis, S. mutans, S. oralis,; also recorded: S. salivarious, S. sanguinis"
4,1T-128 (SGSAIRMLEIATKMLKR; synthetic novel tartgeting peptide IT-128),"A. naeslundii, P. gingivalis; also recorded: S. epidermidis,; also recorded: S. gordonii, S. mitis, S. mutans,; also recorded: S. oralis, S. salivarious,; also recorded: S. sanguinis"
5,1T-129 (YDKYIKYLSIQPPFIVYFI; synthetic novel tartgeting peptide IT-129),"A. naeslundii, P. gingivalis; also recorded: S. epidermidis,; also recorded: S. gordonii, S. mitis, S. mutans,; also recorded: S. oralis, S. salivarious,; also recorded: S. sanguinis"
6,1T-130 (QKIIDMSKFLFSLILFIMIVVIYIGKSIGGYSAIVSSIMLELDTVLYNKKIFFIYK; synthetic novel tartgeting peptide IT-130),"A. naeslundii, F. nucleatum,; also recorded: P. gingivalis; also recorded: S. epidermidis,; also recorded: S. gordonii, S. mitis, S. mutans,; also recorded: S. oralis, S. salivarious,; also recorded: S. sanguinis"
7,1T-131 (DEVWKMLGI; synthetic novel tartgeting peptide IT-131),"A. naeslundii, F. nucleatum,; also recorded: P. gingivalis,; also recorded: T. denticolaS. gordonii,; also recorded: S. mitis, S. mutans, S. oralis,; also recorded: S. salivarious, S. sanguinis"
8,1T-132 (YSKKLFEYFYFIIFILIRYLIFYKIIQNKNYYINNIAYN; synthetic novel tartgeting peptide IT-132),"A. naeslundii, F. nucleatum,; also recorded: P. gingivalis; also recorded: S. epidermidis,; also recorded: S. gordonii, S. mitis, S. mutans,; also recorded: S. oralis, S. salivarious,; also recorded: S. sanguinis"
9,1T-133 (YFIKDDNEALSKDWEVIGNDLKGTIDKYGKEFKVR; synthetic novel tartgeting peptide IT-133),"A. naeslundii, P. gingivalis; also recorded: S. epidermidis,; also recorded: S. gordonii, S. mitis, S. mutans,; also recorded: S. oralis, S. salivarious,; also recorded: S. sanguinis"
10,1T-134 (SRLVREIKKKCRKS; synthetic novel tartgeting peptide IT-134),"A. naeslundii, F. nucleatum,; also recorded: P. gingivalis; also recorded: S. epidermidis,; also recorded: S. gordonii, S. mitis, S. mutans,; also recorded: S. oralis, S. salivarious,; also recorded: S. sanguinis"
11,1T-135 (FESLLPQATKKIVNNKGSKINKIF; synthetic novel tartgeting peptide IT-135),"A. naeslundii, P. gingivalis; also recorded: S. epidermidis,; also recorded: S. gordonii, S. mitis, S. mutans,; also recorded: S. oralis, S. salivarious,; also recorded: S. sanguinis"
12,1T-136 (ELLTQIRLALLYSVNEW; synthetic novel tartgeting peptide IT-136),"A. naeslundii, F. nucleatum,; also recorded: P. gingivalis,; also recorded: S. epidermidis, S. gordonii,; also recorded: S. mitis, S. mutans,; also recorded: S. oralis, S. salivarious,; also recorded: S. sanguinis"
13,1T-137 (PLNFYRAVKENRLPLSEKNINDFTNIKLKVSPKLINLLQESSIFYNFSPKKRNTN; synthetic novel tartgeting peptide IT-137),"A. naeslundii, F. nucleatum,; also recorded: P. gingivalis; also recorded: S. epidermidis,; also recorded: S. gordonii, S. mitis, S. mutans,; also recorded: S. oralis, S. salivarious,; also recorded: S. sanguinis"
14,1T-138 (YPNEYCIFLENLSLEELKEIKAINGETLNLEEIINERKNLKD; synthetic novel tartgeting peptide IT-138),"A. naeslundii, F. nucleatum,; also recorded: P. gingivalis; also recorded: S. epidermidis,; also recorded: S. gordonii, S. mitis, S. mutans,; also recorded: S. oralis, S. salivarious,; also recorded: S. sanguinis"
15,1T-139 (AVAGAAVGALLGNDARSTAVGAAIGGALGAGAGELTKNK; synthetic novel tartgeting peptide IT-139),"A. naeslundiiS. gordonii,; also recorded: S. mitis, S. mutans, S. oralis"
16,1T-140 (IKGTIAFVGEDYVEIRVDKGVKLTFRKSAIANVINNNQQ; synthetic novel tartgeting peptide IT-140),"A. naeslundii, F. nucleatum,; also recorded: P. gingivalis; also recorded: S. epidermidis,; also recorded: S. gordonii, S. mitis, S. mutans,; also recorded: S. oralis, S. salivarious,; also recorded: S. sanguinis"
17,1T-141 (KKFIILLFILVQGLIFSATKTLSDIIAL; synthetic novel tartgeting peptide IT-141),"F. nucleatum, P. gingivalis; also recorded: S. epidermidis,; also recorded: S. gordonii, S. mitis, S. mutans,; also recorded: S. oralis, S. sanguinis"
18,1T-142 (FTQGIKRIVLKRLKED; synthetic novel tartgeting peptide IT-142),"A. naeslundii, F. nucleatum,; also recorded: P. gingivalis,; also recorded: T. denticolaS. gordonii,; also recorded: S. mitis, S. mutans, S. oralis,; also recorded: S. salivarious, S. sanguinis"
19,1T-143 (MPKRHYYKLEAKALQFGLPFAYSPIQLLK; synthetic novel tartgeting peptide IT-143),"A. naeslundii, F. nucleatum,; also recorded: P. gingivalis; also recorded: S. epidermidis,; also recorded: S. gordonii, S. mitis, S. mutans,; also recorded: S. oralis, S. salivarious,; also recorded: S. sanguinis"
